Results reported in patent publication US20230405052A1, “PHARMACEUTICAL COMPOSITION FOR PREVENTING OR TREATING FIBROSIS, COMPRISING ISOLATED MITOCHONDRIA” (Paean Biotechnology Inc., priority 2020, published 2023).

Legend:
Format in all cases: cell-based
[1] = test system: human lung fibroblast CCD8-Lu cells; test: Western blotting of CTGF expression (FIG. 6); conditions: western blotting (FIG. 6), 5 μg mitochondria, 18 hours after 6 hours 2.5 ng/mL TGF-β
Method: In order to observe whether the expression of CTGF, a key gene for fibrosis, is regulated by mesenchymal stem cell-derived mitochondria, a cell-based analysis experiment was performed using a Western analysis method.
CCD8-Lu cells (FIG. 6A) and Wi-38 cells (FIG. 6B), which are human lung-derived fibroblasts, were cultured in DMEM medium containing 10% FBS. The cells were inoculated into a 6 well plate at about 2×10^5 cells/well and cultured for 24 hours, and then depletion conditions were performed in DMEM medium without FBS for about 24 hours.
After 24 hours, the cells were treated with TGF-β at a concentration of 2.5 ng/mL, and then fibrosis of the cells was induced for 6 hours. After 6 hours, the cells were washed twice with PBS to completely remove TGF-β. Next, in the same manner as in Preparation Example 1, the mitochondria isolated from UC-MSC and HEK293 cells were mixed in DMEM medium, and the cells were treated with the mitochondria and then further cultured for 18 hours (FIG. 3). […]
The separated supernatant was obtained and transferred to a new microtube, and then protein was quantified using the BCA analysis method. […]

[2] = test system: human lung fibroblast Wi-38 cells; test: Quantitative real-time PCR of fibrosis genes in TGF-β-treated Wi-38 fibroblasts; conditions: qRT-PCR, 10 μg mitochondria or 1 μM nintedanib, 18 hours after 6 hours TGF-β
Method: (§1) In order to analyze the anti-fibrotic activity of mitochondria, a cell-based analysis experiment was performed using a quantitative real-time polymerase chain reaction.
(§2) CCD8-Lu cells and Wi-38 cells, which are human lung-derived fibroblasts, were cultured in DMEM medium containing 10% FBS, respectively. The cells were inoculated into a 6 well plate at about 2×10^5 cells/well and cultured for 24 hours, and then depletion conditions were performed in DMEM medium without FBS for about 24 hours. After 24 hours, the cells were treated with TGF-β at a concentration of 2.5 ng/mL, and then fibrosis of the cells was induced for 6 hours. After 6 hours, the cells were washed twice with PBS to completely remove the remaining TGF-β. Next, the mitochondria isolated from HEK293, UC-MSC and BM-MSC cells in Preparation Example 1 were mixed in DMEM medium, and the cells were treated with the mitochondria and then further cultured for 18 hours (FIG. 1). […]
(§3) After 18 hours of mitochondria treatment, the culture solution was removed, and the cells were washed twice with a PBS buffer solution, and 0.5 mL of RNA extract (Trizol reagent, Thermo Fisher Scientific) was added directly and then stood at ambient temperature for 10 minutes. […] After drying, about 50 μl of purified RNAase-free distilled water was added, and the quantity and purity of the obtained RNA was measured using a spectrophotometer. […]

[3] = test system: human lung fibroblast CCD8-Lu cells; test: Quantitative real-time PCR of fibrosis genes in TGF-β-treated CCD8-Lu fibroblasts; conditions: qRT-PCR, 10 μg mitochondria or 1 μM nintedanib, 18 hours after 6 hours TGF-β
Method: as §1
as §2, with “1). At this time, the negative control group was not treated with anything, the positive control group was treated with TGF-β alone at a concentration of 5 ng/mL, and the experimental groups were treated with 10 μg of mitochondria isolated from each cell, respectively.” for “1).”
as §3
Changes in the expression of the alpha actin smooth muscle (α-SMA) gene, a characteristic gene of myofibroblast, the CCN2 (or CTGF) gene, a characteristic gene of fibrosis, fibronectin, a characteristic gene of fibrosis, and the NOX-4 gene, a characteristic gene of fibrosis, were observed by quantitative real-time polymerase chain reaction. The GAPDH gene was quantified together to calibrate for differences in the expression.

[4] = test system: human lung fibroblast CCD8-Lu cells; test: Cell immunochemical staining of collagen 1A and fibronectin (FIG. 5); conditions: immunostaining (FIG. 5), 5 μg mitochondria or 1 mM pirfenidone, after 6 hours 2.5 ng/mL TGF-β
Method: In order to analyze the anti-fibrotic activity of stem cell-derived mitochondria, a cell-based analysis experiment was performed using a […].
CCD8-Lu cells, which are human lung-derived fibroblasts, were cultured in DMEM medium containing 10% FBS. Thereafter, the cells were inoculated into a 24 well plate at about 2×10^4 cells/well, cultured for 24 hours, and then reacted in DMEM medium without FBS for about 24 hours. After 24 hours, the cells were treated with TGF-β at a concentration of 2.5 ng/mL, and then fibrosis of the cells was induced for 6 hours. After 6 hours, the cells were washed twice with PBS to completely remove TGF-β. Next, the mitochondria isolated from umbilical cord blood mesenchymal stem cell UC-MSC, bone marrow mesenchymal stem cell BM-MSC, dedifferentiated stem cell iPSC and HEK293 cells obtained in Preparation Example 1 were mixed in DMEM medium, and the cells were treated with the mitochondria and then further cultured for 18 hours (FIG. 4). […]
Immunohistochemical analysis for each sample was performed as follows. […] The nucleus was stained using DAPI (4,6-diamidino-2-phenylindole), and analysis of differences in fluorescence intensity was performed using a fluorescence microscope.

| SMILES | expression of CTGF protein induced by TGF-β [1] | expression of CTGF gene induced by TGF-β [2] | expression of alpha actin smooth muscle (α-SMA) gene induced by TGF-β [2] | expression of CTGF gene induced by TGF-β [3] | expression of NOX-4 gene induced by TGF-β [3] | expression of alpha actin smooth muscle (α-SMA) gene induced by TGF-β [3] | expression of collagen 1A induced by TGF-β (fluorescence intensity) [4] | expression of fibronectin induced by TGF-β (fluorescence intensity) [4] |
| --- | --- | --- | --- | --- | --- | --- | --- | --- |
| COC(=O)c1ccc2c(c1)NC(=O)/C2=C(\Nc1ccc(N(C)C(=O)CN2CCN(C)CC2)cc1)c1ccccc1 [nintedanib] | hardly inhibited | weakly inhibited or hardly inhibited | weakly inhibited or hardly inhibited | weakly inhibited or hardly inhibited | weakly inhibited or hardly inhibited | weakly inhibited or hardly inhibited |  |  |
| Cc1ccc(=O)n(-c2ccccc2)c1 [pirfenidone] |  |  |  |  |  |  | weakly inhibited or hardly inhibited | weakly inhibited or hardly inhibited |
